In the data set the test system is rats. In words: Administration to rats p.o. for 4 days, toxicological effects. In kind it is in vivo. The settings on record: doses of up to 300 mg/kg p.o for 4 days. An excerpt: The compounds of the invention are essentially non toxic at therapeutically active doses.

SMILES strings stand for the structures.

For the compound `CC(C)C[C@@H]1C(=O)N[C@H](C2Cc3ccccc3C2)C(=O)N1[C@@H](C(=O)N(C)C)c1ccc(F)cc1F` [Example 10, (2R)-2-(2,4-difluorophenyl)-2-[(3R,6R)-3-(2,3-dihydro-1H-inden-2-yl)-6-isobutyl-2,5-dioxopiperazin-1-yl]-N,N-dimethylethanamide], the adverse toxicological effects entry was “no adverse toxicological effects were observed”.

Values taken from patent publication US8541579B2, “Substituted diketopiperazines as oxytocin antagonists” (Glaxo Group Limited, priority 2001, dated 2013).
